The structures appear in SMILES notation. Some results are limits rather than exact numbers.

The target of one data set is T1, α4β3δ GABA receptors (α4β3δ-HEK-FlpIn-TRex stable cell strain) (Homo sapiens, UniProt P28472+P48169).
T1 construct: expressed in transfected cells
T1 sequence (P48169 36-554): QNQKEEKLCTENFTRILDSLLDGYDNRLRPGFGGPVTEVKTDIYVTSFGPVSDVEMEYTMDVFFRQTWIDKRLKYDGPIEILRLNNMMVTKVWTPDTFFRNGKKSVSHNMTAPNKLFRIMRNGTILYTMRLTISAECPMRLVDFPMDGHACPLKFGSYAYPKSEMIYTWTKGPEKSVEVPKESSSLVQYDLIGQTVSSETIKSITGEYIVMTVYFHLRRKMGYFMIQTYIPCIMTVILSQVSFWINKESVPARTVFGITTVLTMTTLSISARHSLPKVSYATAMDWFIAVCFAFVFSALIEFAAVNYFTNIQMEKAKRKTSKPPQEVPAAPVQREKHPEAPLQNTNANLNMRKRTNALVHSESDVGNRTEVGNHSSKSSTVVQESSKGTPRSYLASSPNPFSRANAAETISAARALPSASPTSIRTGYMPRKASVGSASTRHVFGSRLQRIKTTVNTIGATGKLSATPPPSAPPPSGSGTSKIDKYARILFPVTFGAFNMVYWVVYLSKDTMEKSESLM
T1 sequence (P28472 26-473): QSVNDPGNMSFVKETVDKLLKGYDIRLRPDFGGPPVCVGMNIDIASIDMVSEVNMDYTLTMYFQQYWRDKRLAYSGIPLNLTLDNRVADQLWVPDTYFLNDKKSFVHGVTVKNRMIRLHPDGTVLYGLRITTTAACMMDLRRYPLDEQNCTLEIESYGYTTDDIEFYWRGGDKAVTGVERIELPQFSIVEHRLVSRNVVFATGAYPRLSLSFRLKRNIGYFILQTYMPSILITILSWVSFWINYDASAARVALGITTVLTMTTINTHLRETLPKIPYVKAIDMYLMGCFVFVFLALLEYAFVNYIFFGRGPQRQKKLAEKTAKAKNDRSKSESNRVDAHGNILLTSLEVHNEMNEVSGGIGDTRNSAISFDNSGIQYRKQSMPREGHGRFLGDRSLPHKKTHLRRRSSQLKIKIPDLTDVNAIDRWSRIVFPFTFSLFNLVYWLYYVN
T1 sequence (O14764 25-452 partner): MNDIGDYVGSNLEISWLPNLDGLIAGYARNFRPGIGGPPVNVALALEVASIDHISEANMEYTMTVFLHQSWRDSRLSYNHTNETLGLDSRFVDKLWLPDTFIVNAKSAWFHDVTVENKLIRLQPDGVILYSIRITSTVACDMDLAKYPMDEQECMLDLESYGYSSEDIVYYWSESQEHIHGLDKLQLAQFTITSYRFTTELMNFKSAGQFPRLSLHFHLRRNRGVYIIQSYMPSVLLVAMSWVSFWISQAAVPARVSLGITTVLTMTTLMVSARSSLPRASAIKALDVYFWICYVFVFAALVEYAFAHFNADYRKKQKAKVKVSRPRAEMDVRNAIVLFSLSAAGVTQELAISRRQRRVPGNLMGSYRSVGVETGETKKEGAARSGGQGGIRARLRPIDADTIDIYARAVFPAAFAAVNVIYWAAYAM
Nature of the data set: Whole-cell patch clamp, extrasynaptic functional activity (positive allosteric regulation of GABA-induced current). The format is cell-based. The following applies: patch clamp -60 mV, GABA at EC10-20, α4β3δ-HEK-FlpIn-TRex cells. The essentials:
(§1)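 Tetracycline-induced stable lines were used: α4β3δ in HEK-FlpIn-TRex and α1β2γ2 in CHO-TRex. Whole-cell patch clamp was run at −60 mV with GABA at EC10-20 ([…]) and compound perfused for 30 s before GABA, with extracellular pH 7.4. Fold increase in GABA current over ≥5 concentrations on ≥3 cells gave EC50 and Emax by Hill fit.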
In general terms: Patch clamp records ionic current or voltage across a cell membrane.
In turn, `C[C@@]1(O)CC[C@H]2[C@H](CC[C@@H]3[C@@H]2CC[C@]2(C)[C@@H](C(=O)Cn4cnn(-c5ccnc(OCC(F)(F)F)c5)c4=O)CC[C@@H]32)C1` [Compound 39] returned an Emax of 967%.
The same measure, in the same setting: to `C[C@@]1(O)CC[C@H]2[C@H](CC[C@@H]3[C@@H]2CC[C@]2(C)[C@@H](C(=O)Cn4cnn(CCOC(F)(F)F)c4=O)CC[C@@H]32)C1` [Compound 43] belongs 889%; to `C[C@@]1(O)CC[C@H]2[C@H](CC[C@@H]3[C@@H]2CC[C@]2(C)[C@@H](C(=O)Cn4cnn(-c5cc(F)cc(C#N)c5)c4=O)CC[C@@H]32)C1` [Compound 44], 546%.
As to `CC(C)(C)n1ncn(CC(=O)[C@H]2CC[C@H]3[C@@H]4CC[C@@H]5C[C@](C)(O)CC[C@@H]5[C@H]4CC[C@]23C)c1=O` [Compound 45], the EC50 turned out to be 113 nM and the Emax was found to be 749%.

Test system in another data set: not listed separately
Nature of the data set: In vitro liver microsomal stability assay, rat. It is filed as in vitro ADME. The note with it: Rat liver microsomes. In outline:
(§2)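 Test compound at […] was incubated at 37° C with 0.5 mg/mL rat or human liver microsomes, 1 mM NADPH and 3 mM MgCl2, in triplicate, sampled 0–60 min. Remaining parent was quantified by LC-MS/MS, giving half-life and microsomal and hepatic intrinsic clearance.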
Take `C[C@@]1(O)CC[C@H]2[C@H](CC[C@@H]3[C@@H]2CC[C@]2(C)[C@@H](C(=O)Cn4cnn(-c5ccnc(OCC(F)(F)F)c5)c4=O)CC[C@@H]32)C1` [Compound 39]: the CLint scaled at 1 µM was less than 13.5 mL/min/kg and the half-life at 1 µM is greater than 3.1 h.
In turn, `C[C@@]1(O)CC[C@H]2[C@H](CC[C@@H]3[C@@H]2CC[C@]2(C)[C@@H](C(=O)Cn4cnn(CCOC(F)(F)F)c4=O)CC[C@@H]32)C1` [Compound 43] displayed a CLint scaled at 1 µM of 108 mL/min/kg and a T1/2 of 0.383 h.
In the case of `C[C@@]1(O)CC[C@H]2[C@H](CC[C@@H]3[C@@H]2CC[C@]2(C)[C@@H](C(=O)Cn4cnn(-c5cc(F)cc(C#N)c5)c4=O)CC[C@@H]32)C1` [Compound 44], the CLint scaled at 1 µM came out at 27 mL/min/kg and the half-life at 1 µM came out at 1.56 h.
With `CC(C)(C)n1ncn(CC(=O)[C@H]2CC[C@H]3[C@@H]4CC[C@@H]5C[C@](C)(O)CC[C@@H]5[C@H]4CC[C@]23C)c1=O` [Compound 45], the CLint scaled at 1 µM turned out to be 281 mL/min/kg and the half-life at 1 µM was found to be 0.148 h.

Staying with this data set, now noted: Rat liver microsomes 0.5 mg/mL, NADPH.
Turning to `C[C@@]1(O)CC[C@H]2[C@H](CC[C@@H]3[C@@H]2CC[C@]2(C)[C@@H](C(=O)Cn4cnn(-c5ccnc(OCC(F)(F)F)c5)c4=O)CC[C@@H]32)C1` [Compound 39], the “Remaining amount % at 60 min” value is reported as 90.6%.
Regarding `C[C@@]1(O)CC[C@H]2[C@H](CC[C@@H]3[C@@H]2CC[C@]2(C)[C@@H](C(=O)Cn4cnn(CCOC(F)(F)F)c4=O)CC[C@@H]32)C1` [Compound 43], the “Remaining amount % at 60 min” value came to 15.74%.
For `C[C@@]1(O)CC[C@H]2[C@H](CC[C@@H]3[C@@H]2CC[C@]2(C)[C@@H](C(=O)Cn4cnn(-c5cc(F)cc(C#N)c5)c4=O)CC[C@@H]32)C1` [Compound 44], the “Remaining amount % at 60 min” value is given as 64.82%.
The same measure, in the same setting: under `CC(C)(C)n1ncn(CC(=O)[C@H]2CC[C@H]3[C@@H]4CC[C@@H]5C[C@](C)(O)CC[C@@H]5[C@H]4CC[C@]23C)c1=O` [Compound 45] stands 7.24%.

Staying with this data set, now noted: Rat liver microsomes; read-out: CLint(mic).
Take `C[C@@]1(O)CC[C@H]2[C@H](CC[C@@H]3[C@@H]2CC[C@]2(C)[C@@H](C(=O)Cn4cnn(-c5ccnc(OCC(F)(F)F)c5)c4=O)CC[C@@H]32)C1` [Compound 39]: the microsomal CLint at 1 µM was less than 7.5 µL/min/mg.
As for `C[C@@]1(O)CC[C@H]2[C@H](CC[C@@H]3[C@@H]2CC[C@]2(C)[C@@H](C(=O)Cn4cnn(CCOC(F)(F)F)c4=O)CC[C@@H]32)C1` [Compound 43], the microsomal CLint at 1 µM was 60 µL/min/mg.
Regarding `C[C@@]1(O)CC[C@H]2[C@H](CC[C@@H]3[C@@H]2CC[C@]2(C)[C@@H](C(=O)Cn4cnn(-c5cc(F)cc(C#N)c5)c4=O)CC[C@@H]32)C1` [Compound 44], the microsomal CLint at 1 µM was determined as 15 µL/min/mg.
In the case of `CC(C)(C)n1ncn(CC(=O)[C@H]2CC[C@H]3[C@@H]4CC[C@@H]5C[C@](C)(O)CC[C@@H]5[C@H]4CC[C@]23C)c1=O` [Compound 45], the microsomal CLint at 1 µM stood at 156 µL/min/mg.

Test system in the next data set: not listed separately
Nature of the data set: In vitro liver microsomal stability assay, human. The format is in vitro ADME. The following applies: Human liver microsomes. The essentials: as §2
Background: Liver microsomes are vesicles of endoplasmic reticulum, rich in cytochrome P450 enzymes.
In turn, `C[C@@]1(O)CC[C@H]2[C@H](CC[C@@H]3[C@@H]2CC[C@]2(C)[C@@H](C(=O)Cn4cnn(-c5ccnc(OCC(F)(F)F)c5)c4=O)CC[C@@H]32)C1` [Compound 39] gave a CLint scaled at 1 µM of 8 mL/min/kg and a T1/2 of 2.57 h.
The molecule `C[C@@]1(O)CC[C@H]2[C@H](CC[C@@H]3[C@@H]2CC[C@]2(C)[C@@H](C(=O)Cn4cnn(CCOC(F)(F)F)c4=O)CC[C@@H]32)C1` [Compound 43] displayed a CLint scaled at 1 µM of 41 mL/min/kg and a T1/2 of 0.512 h.
`C[C@@]1(O)CC[C@H]2[C@H](CC[C@@H]3[C@@H]2CC[C@]2(C)[C@@H](C(=O)Cn4cnn(-c5cc(F)cc(C#N)c5)c4=O)CC[C@@H]32)C1` [Compound 44] returned an intrinsic metabolic clearance (CLint scaled) at 1 µM of 12 mL/min/kg and a half-life at 1 µM of 1.7 h.
For `CC(C)(C)n1ncn(CC(=O)[C@H]2CC[C@H]3[C@@H]4CC[C@@H]5C[C@](C)(O)CC[C@@H]5[C@H]4CC[C@]23C)c1=O` [Compound 45], the CLint scaled at 1 µM turned out to be 22 mL/min/kg and the half-life at 1 µM came out at 0.938 h.

Still in this data set, the particulars now being: Human liver microsomes 0.5 mg/mL, NADPH.
With `C[C@@]1(O)CC[C@H]2[C@H](CC[C@@H]3[C@@H]2CC[C@]2(C)[C@@H](C(=O)Cn4cnn(-c5ccnc(OCC(F)(F)F)c5)c4=O)CC[C@@H]32)C1` [Compound 39], the “Remaining amount % at 60 min” value turned out to be 76.2%.
Same read-out and setting: to `C[C@@]1(O)CC[C@H]2[C@H](CC[C@@H]3[C@@H]2CC[C@]2(C)[C@@H](C(=O)Cn4cnn(CCOC(F)(F)F)c4=O)CC[C@@H]32)C1` [Compound 43] belongs 25.97%.
Take `C[C@@]1(O)CC[C@H]2[C@H](CC[C@@H]3[C@@H]2CC[C@]2(C)[C@@H](C(=O)Cn4cnn(-c5cc(F)cc(C#N)c5)c4=O)CC[C@@H]32)C1` [Compound 44]: the “Remaining amount % at 60 min” value worked out at 66.67%.
As for `CC(C)(C)n1ncn(CC(=O)[C@H]2CC[C@H]3[C@@H]4CC[C@@H]5C[C@](C)(O)CC[C@@H]5[C@H]4CC[C@]23C)c1=O` [Compound 45], the “Remaining amount % at 60 min” value amounted to 48.81%.

The same data set, now with this note: Human liver microsomes; read-out: CLint(mic).
On to `C[C@@]1(O)CC[C@H]2[C@H](CC[C@@H]3[C@@H]2CC[C@]2(C)[C@@H](C(=O)Cn4cnn(-c5ccnc(OCC(F)(F)F)c5)c4=O)CC[C@@H]32)C1` [Compound 39], for which the microsomal CLint at 1 µM is 9 µL/min/mg.
With `C[C@@]1(O)CC[C@H]2[C@H](CC[C@@H]3[C@@H]2CC[C@]2(C)[C@@H](C(=O)Cn4cnn(CCOC(F)(F)F)c4=O)CC[C@@H]32)C1` [Compound 43], the microsomal CLint at 1 µM came out at 45 µL/min/mg.
On the same count and under the same terms, under `C[C@@]1(O)CC[C@H]2[C@H](CC[C@@H]3[C@@H]2CC[C@]2(C)[C@@H](C(=O)Cn4cnn(-c5cc(F)cc(C#N)c5)c4=O)CC[C@@H]32)C1` [Compound 44] stands 14 µL/min/mg.
For the molecule `CC(C)(C)n1ncn(CC(=O)[C@H]2CC[C@H]3[C@@H]4CC[C@@H]5C[C@](C)(O)CC[C@@H]5[C@H]4CC[C@]23C)c1=O` [Compound 45], the microsomal CLint at 1 µM was determined as 25 µL/min/mg.

The target of another data set is T2, α1β2γ2 GABA receptors (α1β2γ2-CHO-TRex stable cell strain) (Homo sapiens, UniProt P14867+P47870).
T2 construct: expressed in transfected cells
T2 sequence (P14867 28-456): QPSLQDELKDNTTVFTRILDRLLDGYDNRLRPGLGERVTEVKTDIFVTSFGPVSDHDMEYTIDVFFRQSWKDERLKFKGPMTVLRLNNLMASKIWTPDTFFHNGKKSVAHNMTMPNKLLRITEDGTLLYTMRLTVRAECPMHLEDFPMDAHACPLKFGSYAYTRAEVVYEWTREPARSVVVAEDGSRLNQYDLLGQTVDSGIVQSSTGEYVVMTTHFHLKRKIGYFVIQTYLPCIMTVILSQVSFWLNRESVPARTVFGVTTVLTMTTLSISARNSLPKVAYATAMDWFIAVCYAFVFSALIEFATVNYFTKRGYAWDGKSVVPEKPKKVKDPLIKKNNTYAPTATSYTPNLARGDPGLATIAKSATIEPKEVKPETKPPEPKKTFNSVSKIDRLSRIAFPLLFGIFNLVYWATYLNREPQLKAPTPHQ
T2 sequence (P47870 25-512 limits assumed): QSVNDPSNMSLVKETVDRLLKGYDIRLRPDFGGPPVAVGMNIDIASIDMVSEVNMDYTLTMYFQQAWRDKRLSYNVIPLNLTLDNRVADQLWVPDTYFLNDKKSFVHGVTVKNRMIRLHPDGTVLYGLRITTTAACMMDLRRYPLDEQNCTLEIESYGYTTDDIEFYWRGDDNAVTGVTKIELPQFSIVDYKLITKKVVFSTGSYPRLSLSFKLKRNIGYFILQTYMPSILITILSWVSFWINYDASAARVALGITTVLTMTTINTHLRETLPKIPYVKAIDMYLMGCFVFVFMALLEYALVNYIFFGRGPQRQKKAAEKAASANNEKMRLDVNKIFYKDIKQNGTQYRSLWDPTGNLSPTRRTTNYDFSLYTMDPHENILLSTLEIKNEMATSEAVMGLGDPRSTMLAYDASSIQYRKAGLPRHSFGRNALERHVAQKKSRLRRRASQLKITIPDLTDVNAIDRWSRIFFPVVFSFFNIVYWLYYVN
T2 sequence (P18507 40-475 partner): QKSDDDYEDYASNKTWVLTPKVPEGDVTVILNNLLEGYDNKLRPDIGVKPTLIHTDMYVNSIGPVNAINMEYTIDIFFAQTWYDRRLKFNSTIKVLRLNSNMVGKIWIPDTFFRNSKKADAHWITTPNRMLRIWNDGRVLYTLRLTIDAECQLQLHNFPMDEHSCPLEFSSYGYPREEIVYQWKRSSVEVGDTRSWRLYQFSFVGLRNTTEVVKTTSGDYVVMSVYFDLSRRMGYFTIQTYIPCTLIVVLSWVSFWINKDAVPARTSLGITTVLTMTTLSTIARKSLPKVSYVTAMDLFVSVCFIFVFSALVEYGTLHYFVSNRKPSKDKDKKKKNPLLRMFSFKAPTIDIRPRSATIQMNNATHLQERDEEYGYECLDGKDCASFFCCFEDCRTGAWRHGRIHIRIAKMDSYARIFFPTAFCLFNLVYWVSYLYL
Nature of the data set: Whole-cell patch clamp, intrasynaptic functional activity (positive allosteric regulation of GABA-induced current). The format is cell-based. The following applies: patch clamp -60 mV, GABA at EC10-20, α1β2γ2-CHO-TRex cells. The essentials:
as §1
As to `C[C@@]1(O)CC[C@H]2[C@H](CC[C@@H]3[C@@H]2CC[C@]2(C)[C@@H](C(=O)Cn4cnn(-c5ccnc(OCC(F)(F)F)c5)c4=O)CC[C@@H]32)C1` [Compound 39], the Emax is 675%.
The molecule `C[C@@]1(O)CC[C@H]2[C@H](CC[C@@H]3[C@@H]2CC[C@]2(C)[C@@H](C(=O)Cn4cnn(CCOC(F)(F)F)c4=O)CC[C@@H]32)C1` [Compound 43] returned an Emax of 576%.
On to `C[C@@]1(O)CC[C@H]2[C@H](CC[C@@H]3[C@@H]2CC[C@]2(C)[C@@H](C(=O)Cn4cnn(-c5cc(F)cc(C#N)c5)c4=O)CC[C@@H]32)C1` [Compound 44], for which the Emax came out at 518%.
The molecule `CC(C)(C)n1ncn(CC(=O)[C@H]2CC[C@H]3[C@@H]4CC[C@@H]5C[C@](C)(O)CC[C@@H]5[C@H]4CC[C@]23C)c1=O` [Compound 45] returned an EC50 of 121 nM and an Emax of 806%.

One may read the Emax as the maximal effect, on the per cent scale that the assay sets. The term EC50 denotes the midpoint of the concentration-response curve. Read a low EC50 as an effect from little substance. In general, CLint scaled refers to a measure of how fast metabolising enzymes remove a compound, apart from limits set by blood flow. A higher CLint scaled goes with rapid turnover. As usually defined, the half-life is the time in which the quantity being followed falls by half. Lower therefore signals rapid decline.

Source of the values: patent US20250368678A1, “19-NOR-C3,3-DISUBSTITUTED C21-AZACYCLO-S[…] AND METHOD FOR USING SAME” (SHANDONG LUYE PHARMACEUTICAL CO., LTD., priority 2022, published 2025).
